Laboratory results reported in patent US9635859B2, “Pesticidal compositions and processes related thereto” (Dow AgroSciences LLC, priority 2012, dated 2017).

Key:
[1] = tested on: Cabbage Looper (Trichoplusia ni); assay: Bioassays on CL, 128-well diet tray assay; format: in vivo; details: percent mortality, second instar larvae, 50 μg/cm^2 on artificial diet, five to seven days, 25° C.; Table 3A
Method: Certain molecules disclosed in this document were tested against BAW and CEW and CL using procedures described in the following examples. In the reporting of the results, the “BAW & CEW & CL Rating Table” was used (See Table Section).
Bioassays on CL (Trichoplusia ni)
Bioassays on CL were conducted using a 128-well diet tray assay. One to five second instar CL larvae were placed in each well (3 mL) of the diet tray that had been previously filled with 1 mL of artificial diet to which 50 μg/cm^2 of the test compound (dissolved in 50 μL of 90:10 acetone-water mixture) had been applied (to each of eight wells) and then allowed to dry. Trays were covered with a clear self-adhesive cover, and held at 25° C., 14:10 light-dark for five to seven days. Percent mortality was recorded for the larvae in each well; activity in the eight wells was then averaged. The results are indicated in the table entitled “Table 3A: Assay Results” (See Table Section).

[2] = tested on: Beet Armyworm (Spodoptera exigua); assay: Bioassays on BAW, 128-well diet tray assay; format: in vivo; details: percent mortality, second instar larvae, 50 μg/cm^2 on artificial diet, five to seven days, 25° C.; Table 3
In short: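 Second-instar larvae (one to five per well) were placed on artificial diet surface-treated with 50 μg/cm^2 compound in acetone-water and held at 25 °C, 14:10 light-dark, for five to seven days. Percent mortality was averaged over eight wells.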

SMILES | CL Rating [1] | BAW Rating [2]
CCNC(=O)N(C)NC(=O)c1ccc(/C=C/C(c2cc(Cl)c(Cl)c(Cl)c2)C(F)(F)F)cc1Br (centres unmarked) [Compound F1, (E)-2-(2-Bromo-4-(4,4,4-trifluoro-3-(3,4,5-trichlorophenyl)but-1-en-1-yl)benzoyl)-N-ethyl-1-methylhydrazinecarboxamide] | A (50-100) | 
O=C(NCC(F)(F)F)NNC(=O)c1ccc(/C=C/C(c2cc(Cl)c(Cl)c(Cl)c2)C(F)(F)F)cc1Br (centres unmarked) [Compound F7, (E)-2-(2-Bromo-4-(4,4,4-trifluoro-3-(3,4,5-trichlorophenyl)but-1-en-1-yl)benzoyl)-N-(2,2,2-trifluoroethyl)hydrazinecarboxamide] | A (50-100) | 
O=C(CC(F)(F)F)NCc1ccc(/C=C/C(c2cc(Cl)cc(Cl)c2)C(F)(F)F)cc1Cl (centres unmarked) [CC9] |  | A (50-100)
Cc1cc(/C=C/C(c2cc(Cl)cc(Cl)c2)C(F)(F)F)ccc1C(=O)NCC1CCCO1 (centres unmarked) [AC118] |  | A (50-100)
O=C(C1CC1)N(Cc1ccccn1)Cc1ccc(/C=C/C(c2cc(Cl)c(Cl)c(Cl)c2)C(F)(F)F)cc1C(F)(F)F (centres unmarked) [CC29, (E)-N-(Pyridin-2-ylmethyl)-N-(4-(4,4,4-trifluoro-3-(3,4,5-trichlorophenyl)but-1-enyl)-2-(trifluoromethyl)benzyl)cyclopropanecarboxamide] |  | A (50-100)
O=C(NC1CCNCC1)c1ccc(/C=C/C(c2cc(Cl)c(Cl)c(Cl)c2)C(F)(F)F)cc1Br (centres unmarked) [AC114, (E)-2-Bromo-N-(piperidin-4-yl)-4-(4,4,4-trifluoro-3-(3,4,5-trichlorophenyl)but-1-en-1-yl)benzamide] |  | A (50-100)
FC(F)(F)C(/C=C/c1ccc(-n2cncn2)cc1)c1ccc(Cl)c(Cl)c1 (centres unmarked) [DC12] |  | A (50-100)
O=C(CC(F)(F)F)NC1CCc2cc(/C=C/C(c3cc(Cl)c(F)c(Cl)c3)C(F)(F)F)ccc21 (centres unmarked) [BC8] |  | A (50-100)
O=C(NCc1ncc(/C=C/C(c2cc(Cl)c(Cl)c(Cl)c2)C(F)(F)F)cc1Cl)C1CC1 (centres unmarked) [CC45] |  | A (50-100)
N#Cc1cc(/C=C/C(c2cc(Cl)c(Cl)c(Cl)c2)C(F)(F)F)ccc1-n1cnc([N+](=O)[O-])n1 (centres unmarked) [DC40, (E)-2-(3-Nitro-1H-1,2,4-triazol-1-yl)-5-(4,4,4-trifluoro-3-(3,4,5-trichlorophenyl)but-1-en-1-yl)benzonitrile] |  | A (50-100)
FC(F)(F)C(/C=C/c1ccc(CNC(=S)C2CC2)c(Cl)c1)c1cc(Cl)c(Cl)c(Cl)c1 (centres unmarked) [CC20] |  | A (50-100)
FC(F)(F)C(/C=C/c1ccc(-n2cncn2)c(Cl)c1)c1cc(Cl)c(Cl)c(Cl)c1 (centres unmarked) [DC49] |  | A (50-100)
O=C(NCc1ccc(C(F)(F)F)nc1)c1ccc(/C=C/C(c2cc(Cl)c(Cl)c(Cl)c2)C(F)(F)F)cc1Br (centres unmarked) [AC75] |  | A (50-100)
Cc1cc(/C=C/C(c2cc(Cl)c(Cl)c(Cl)c2)C(F)(F)F)ccc1C(=O)NC(C)(C)c1ccccn1 (centres unmarked) [AC27] |  | A (50-100)
Cc1cc(C)cc(C(/C=C/c2ccc(-n3cncn3)cc2)C(F)(F)F)c1 (centres unmarked) [DC11] |  | A (50-100)
Cc1cc(/C=C/C(c2cc(Cl)c(F)c(Cl)c2)C(F)(F)F)ccc1C(=O)NCc1ccnc(Cl)c1 (centres unmarked) [AC54] |  | A (50-100)
Cc1cc(/C=C/C(c2cc(Cl)cc(Cl)c2)C(F)(F)F)ccc1C(=O)NCC(=O)N(C)CC(F)(F)F (centres unmarked) [AC51] |  | A (50-100)
O=C(CC(F)(F)F)NCC(=O)n1ccc2cc(/C=C/C(c3cc(Cl)c(F)c(Cl)c3)C(F)(F)F)ccc21 (centres unmarked) [BC13, (E)-N-(2-(5-(3-(3,5-Dichloro-4-fluorophenyl)-4,4,4-trifluorobut-1-en-1-yl)-1H-indol-1-yl)-2-oxoethyl)-3,3,3-trifluoropropanamide] |  | A (50-100)
FC(F)(F)C(/C=C/c1ccc(-n2cncn2)c(Br)c1)c1cc(Cl)cc(Cl)c1 (centres unmarked) [DC47] |  | A (50-100)
Cc1cc(/C=C/C(c2cc(Cl)cc(Cl)c2)C(F)(F)F)ccc1C(=O)NCc1ccccc1 (centres unmarked) [AC11] |  | A (50-100)
CCc1cc(/C=C/C(c2cc(Cl)c(F)c(Cl)c2)C(F)(F)F)ccc1C(=O)NCc1ccc(Cl)nc1 (centres unmarked) [AC72] |  | A (50-100)
Cc1cc(/C=C/C(c2cc(Cl)c(F)c(Cl)c2)C(F)(F)F)ccc1C(=O)NCc1cc(Cl)ccn1 (centres unmarked) [AC77] |  | A (50-100)
Cc1cc(/C=C/C(c2cc(Cl)cc(Cl)c2)C(F)(F)F)ccc1C(=O)NC(C)(C)c1ccccn1 (centres unmarked) [AC16] |  | A (50-100)
Cc1cc(/C=C/C(c2cc(Cl)cc(Cl)c2)C(F)(F)F)cc(C#N)c1-n1cncn1 (centres unmarked) [DC44] |  | A (50-100)
Cc1cc(/C=C/C(c2cc(Cl)cc(Cl)c2)C(F)(F)F)ccc1C(=O)NCc1cnc(Cl)s1 (centres unmarked) [AC15] |  | A (50-100)

SMILES | CL Rating [1] | BAW Rating [2]
O=C(Cc1ccc(Cl)nc1)NC1CCc2cc(/C=C/C(c3cc(Cl)c(F)c(Cl)c3)C(F)(F)F)ccc21 (centres unmarked) [BC9] |  | A (50-100)
CC(C)(C)OC(=O)CNC(=O)c1ccc(/C=C/C(c2cc(Cl)c(Cl)c(Cl)c2)C(F)(F)F)cc1Br (centres unmarked) [AC58] |  | A (50-100)
O=C(NC1CSC1)c1ccc(/C=C/C(c2cc(Cl)c(Cl)c(Cl)c2)C(F)(F)F)cc1C(F)(F)F (centres unmarked) [AC34] |  | A (50-100)
COc1c(Cl)cc(C(/C=C/c2ccc(-n3cncn3)cc2)C(F)(F)F)cc1Cl (centres unmarked) [DC20] |  | A (50-100)
N#CCN1CCC(NC(=O)c2ccc(/C=C/C(c3cc(Cl)c(Cl)c(Cl)c3)C(F)(F)F)cc2Br)CC1 (centres unmarked) [AC107] |  | B (More than 0-Less than 50)
CCNC(=O)NCc1ccc(/C=C/C(c2cc(Cl)c(Cl)c(Cl)c2)C(F)(F)F)cc1C(F)(F)F (centres unmarked) [CC32] |  | A (50-100)
CCNC(=O)NCc1ccc(/C=C/C(c2cc(Cl)cc(Cl)c2)C(F)(F)F)cc1Cl (centres unmarked) [CC31, (E)-1-(2-Chloro-4-(3-(3,5-dichlorophenyl)-4,4,4-trifluorobut-1-en-1-yl)benzyl)-3-ethylurea] |  | B (More than 0-Less than 50)
O=C(NCCc1ccc(Cl)nc1)c1ccc(/C=C/C(c2cc(Cl)c(Cl)c(Cl)c2)C(F)(F)F)cc1Br (centres unmarked) [AC113] |  | B (More than 0-Less than 50)
Cc1cc(/C=C/C(c2cc(Cl)cc(Cl)c2)C(F)(F)F)ccc1C(=O)NCc1nccn1C (centres unmarked) [AC50] |  | A (50-100)
CONC(=O)CNC(=O)c1ccc(/C=C/C(c2cc(Cl)c(Cl)c(Cl)c2)C(F)(F)F)cc1Br (centres unmarked) [AC110] |  | A (50-100)
O=C(NOc1ccc(/C=C/C(c2cc(Cl)c(Cl)c(Cl)c2)C(F)(F)F)cc1)C1CC1 (centres unmarked) [CC52, (E)-N-(4-(4,4,4-Trifluoro-3-(3,4,5-trichlorophenyl)but-1-en-1-yl)phenoxy)cyclopropanecarboxamide] |  | A (50-100)
O=C(CNC(=O)c1ccc(/C=C/C(c2cc(Cl)c(F)c(Cl)c2)C(F)(F)F)cc1F)NCC(F)(F)F (centres unmarked) [AC68] |  | A (50-100)
CCOC(=O)c1cc(/C=C/C(c2cc(Cl)cc(Cl)c2)C(F)(F)F)ccc1-n1cncn1 (centres unmarked) [DC60] |  | A (50-100)
O=C(Cc1ccc(Cl)nc1)NCc1ccc(/C=C/C(c2cc(Cl)c(Cl)c(Cl)c2)C(F)(F)F)cc1Cl (centres unmarked) [CC14] |  | A (50-100)
Fc1c(Cl)cc(C(/C=C/c2ccc3c(c2)CCC3NCCC(F)(F)F)C(F)(F)F)cc1Cl (centres unmarked) [BC10, (E)-5-(3-(3,5-Dichloro-4-fluorophenyl)-4,4,4-trifluorobut-1-en-1-yl)-N-(3,3,3-trifluoropropyl)-2,3-dihydro-1H-inden-1-amine] |  | A (50-100)
CCNC(=O)NCc1ccc(/C=C/C(c2cc(Cl)c(Cl)c(Cl)c2)C(F)(F)F)cc1Br (centres unmarked) [CC33] |  | A (50-100)
O=C(NC1CCc2cc(/C=C/C(c3cc(Cl)c(Cl)c(Cl)c3)C(F)(F)F)ccc21)C1CC1 (centres unmarked) [BC6] |  | A (50-100)
Cc1cc(/C=C/C(c2cc(Cl)cc(Cl)c2)C(F)(F)F)ccc1C(=O)NCc1cncnc1 (centres unmarked) [AC39, 4-((E)-3-(3,5-Dichlorophenyl)-4,4,4-trifluorobut-1-enyl)-2-methyl-N-((pyrimidin-5-yl)methyl)benzamide] |  | A (50-100)
Cc1cc(/C=C/C(c2cc(Cl)cc(Cl)c2)C(F)(F)F)ccc1C(=O)NCc1cnccn1 (centres unmarked) [AC43] |  | A (50-100)
O=C(CC(F)(F)F)NC1CCCc2cc(/C=C/C(c3cc(Cl)c(Cl)c(Cl)c3)C(F)(F)F)ccc21 (centres unmarked) [BC5] |  | A (50-100)
O=C(CNC(=O)c1ccc(/C=C/C(c2cc(Cl)cc(Cl)c2)C(F)(F)F)cc1F)NCC(F)(F)F (centres unmarked) [AC62] |  | A (50-100)
Cc1cc(/C=C/C(c2cc(Cl)c(Cl)c(Cl)c2)C(F)(F)F)cc(C#N)c1-n1cncn1 (centres unmarked) [DC45] |  | A (50-100)
Cc1cc(/C=C/C(c2cc(Cl)cc(Cl)c2)C(F)(F)F)ccc1C(=O)NCC(=O)NC1CS(=O)(=O)C1 (centres unmarked) [AC81] |  | A (50-100)
O=C(NCc1ccc(/C=C/C(c2cc(Cl)c(Cl)c(Cl)c2)C(F)(F)F)cc1)C1CC1 (centres unmarked) [CC5] |  | A (50-100)
FC(F)(F)C(/C=C/c1ccc(CNc2ccccn2)c(Cl)c1)c1cc(Cl)c(Cl)c(Cl)c1 (centres unmarked) [CC43, (E)-N-(2-Chloro-4-(4,4,4-trifluoro-3-(3,4,5-trichlorophenyl)but-1-en-1-yl)benzyl)pyridin-2-amine] |  | A (50-100)
